From patent US9944654B2, “Nargenicin compounds and uses thereof as antibacterial agents” (priority 2014, dated 2018) come the findings set out here.

Structures are written as SMILES. Converted amounts (≈) assume the structure as drawn. Read-outs that look alike come from different tables or passages of the source.

Assay [1] deals with T1, E. coli DnaE (DNA polymerase III α-subunit from Escherichia coli) (Escherichia coli, UniProt P10443).
T1 construct: EcDnaE (E. coli DnaE residues 1-1160); 6xHis (N); made in house; host or cells: E. coli BL21(DE3)
T1 sequence (P10443 whole entry, the tested form may be a part): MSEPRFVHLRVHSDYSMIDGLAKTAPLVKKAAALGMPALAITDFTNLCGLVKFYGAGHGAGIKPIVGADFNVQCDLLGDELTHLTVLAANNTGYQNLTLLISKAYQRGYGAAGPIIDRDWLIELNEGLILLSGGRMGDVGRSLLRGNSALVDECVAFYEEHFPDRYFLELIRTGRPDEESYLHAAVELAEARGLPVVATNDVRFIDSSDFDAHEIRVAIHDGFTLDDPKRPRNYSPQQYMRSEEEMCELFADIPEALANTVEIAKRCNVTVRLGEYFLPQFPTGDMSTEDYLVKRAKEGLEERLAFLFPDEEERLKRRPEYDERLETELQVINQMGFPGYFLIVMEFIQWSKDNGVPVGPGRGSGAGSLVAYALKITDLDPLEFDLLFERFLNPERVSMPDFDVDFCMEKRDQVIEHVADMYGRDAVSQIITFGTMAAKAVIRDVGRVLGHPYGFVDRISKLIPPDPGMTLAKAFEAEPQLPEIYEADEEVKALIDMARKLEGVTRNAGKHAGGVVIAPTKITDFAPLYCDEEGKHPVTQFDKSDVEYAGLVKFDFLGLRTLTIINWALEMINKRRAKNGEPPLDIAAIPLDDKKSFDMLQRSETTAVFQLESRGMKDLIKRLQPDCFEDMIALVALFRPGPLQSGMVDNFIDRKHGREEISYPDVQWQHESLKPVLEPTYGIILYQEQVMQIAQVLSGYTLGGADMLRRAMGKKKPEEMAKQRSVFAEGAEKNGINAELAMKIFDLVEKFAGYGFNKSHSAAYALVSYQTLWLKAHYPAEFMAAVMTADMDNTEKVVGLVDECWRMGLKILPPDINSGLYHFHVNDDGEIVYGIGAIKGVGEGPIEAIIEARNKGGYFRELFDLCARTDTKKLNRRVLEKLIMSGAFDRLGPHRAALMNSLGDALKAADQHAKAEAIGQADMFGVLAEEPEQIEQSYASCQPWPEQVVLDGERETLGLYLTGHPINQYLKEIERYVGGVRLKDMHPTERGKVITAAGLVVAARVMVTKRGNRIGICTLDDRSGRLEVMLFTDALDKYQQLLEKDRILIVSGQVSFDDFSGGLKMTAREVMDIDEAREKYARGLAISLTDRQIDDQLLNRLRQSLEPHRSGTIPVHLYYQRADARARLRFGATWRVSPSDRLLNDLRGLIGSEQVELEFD
The experiment in a line: In vitro DnaE single enzyme assay (E. coli). The conditions noted are these: E. coli DnaE IC50. It is filed as biochemical. The method, then: (§1) Plasmids encoding EcDnaE (E. coli DnaE residues 1-1160) and SaDnaE (S. aureus DnaE residues 1-1065) with 6×His N-terminal tags, were overexpressed in BL21(DE3) and BL21-AI cells (Invitrogen), respectively. Cells were grown in LB media to an OD ˜0.45 pelleted and then resuspended in Minimal Media, as described in Pryor et al. (1997, Protein Expr Purif. 10:309-19), and inducer (0.4 mM IPTG or 0.2% arabinose) for 21 hours at 18° C. at 220 rpm. Cells were then harvested, frozen for 20 minutes at −80° C. and thawed. Pellets were resuspended in 1× Talon buffer (50 mM Sodium Phosphate, 300 mM Sodium Chloride, pH 7.4) +10% glycerol +Roche PI's (-EDTA). Cells were lysed with two passes through a French press, then centrifuged for 45 minutes at 40,000 rpm (70Ti, Beckman). Supernatant was bound to 5 mL TALON resin (CLONTECH) for 1 hour at room temperature on Nutator. TALON resin was washed with 10 mM imidizole, and DnaE was eluted with 250 mM imidizole. Eluate was concentrated and run on a size exclusion column (SEC200, GE Healthcare) in the following buffer; 25 mM HEPES, 30 mM NaCl,1 mM CaCl2, 5% glycerol, pH 7.9. Pool SEC fractions based on SDS-PAGE run, aliquot, freeze, and store at -80° C.
(§2) DnaE was diluted in 50 mM potassium phosphate pH 7.5, 5 mM BME, 10% glycerol and 200 mM NaCl prior to use.
(§3) The purpose of the DnaE single enzyme assay is to determine the ability of compounds to inhibit the DNA polymerase III α-subunit homolog from Staphylococcus aureus or the α-subunit from Escherichia coli without the other components of the replication machinery. The DnaE single enzyme assay was a modified version of the method, Standard Pol III Assay Using Activated DNA and Four dNTPs, described by Butler et al., 2008, Methods in Molecular Medicine: New Antibiotic Targets 142:25-36. Briefly, in 96-well plates, enzyme was added to a mixture containing 30 mM Tris-HCl pH 7.5, 20% glycerol, 4 mM DTT, 10 mM Mg acetate, 0.025 mM dATP, 0.025 mM dGTP, 0.025 mM dc:TP, 0.011 mM ^3H-dTTP 1 mCi/ml (Perkin-Elmer), and 0.298 mg/mL Dnase I (Sigma) treated “activated” Calf Thymus DNA (Worthington Biochemical). The assay was set up so that 5 μl of compound was distributed to the plates, 90 μl of reaction mix was added to the compound, and 5 μl of enzyme was added to start the reaction. Assays were initiated by the addition of 0.8 μg/ml E. coli or 0.05 μg/ml S. aureus DnaE, incubated for 30 min at 30° C., and terminated by the addition of a 20% trichloroacetic acid and 0.2% sodium pyrophosphate solution. Precipitated labeled DNA was collected on Glass-fiber Filtermat A using Micro96 Harvester, and the filters were washed, dried, and counted in a Microbeta Trilux (Perkin Elmer). Serial dilutions of compounds (in DMSO) were added to the plates before enzyme addition.

Assay [2] has as its target T2, S. aureus DnaE (DNA polymerase III α-subunit homolog from Staphylococcus aureus) (Staphylococcus aureus, UniProt Q5HF71).
T2 construct: SaDnaE (S. aureus DnaE residues 1-1065); 6xHis (N); made in house; host or cells: E. coli BL21-AI
T2 sequence (Q5HF71 1-1065): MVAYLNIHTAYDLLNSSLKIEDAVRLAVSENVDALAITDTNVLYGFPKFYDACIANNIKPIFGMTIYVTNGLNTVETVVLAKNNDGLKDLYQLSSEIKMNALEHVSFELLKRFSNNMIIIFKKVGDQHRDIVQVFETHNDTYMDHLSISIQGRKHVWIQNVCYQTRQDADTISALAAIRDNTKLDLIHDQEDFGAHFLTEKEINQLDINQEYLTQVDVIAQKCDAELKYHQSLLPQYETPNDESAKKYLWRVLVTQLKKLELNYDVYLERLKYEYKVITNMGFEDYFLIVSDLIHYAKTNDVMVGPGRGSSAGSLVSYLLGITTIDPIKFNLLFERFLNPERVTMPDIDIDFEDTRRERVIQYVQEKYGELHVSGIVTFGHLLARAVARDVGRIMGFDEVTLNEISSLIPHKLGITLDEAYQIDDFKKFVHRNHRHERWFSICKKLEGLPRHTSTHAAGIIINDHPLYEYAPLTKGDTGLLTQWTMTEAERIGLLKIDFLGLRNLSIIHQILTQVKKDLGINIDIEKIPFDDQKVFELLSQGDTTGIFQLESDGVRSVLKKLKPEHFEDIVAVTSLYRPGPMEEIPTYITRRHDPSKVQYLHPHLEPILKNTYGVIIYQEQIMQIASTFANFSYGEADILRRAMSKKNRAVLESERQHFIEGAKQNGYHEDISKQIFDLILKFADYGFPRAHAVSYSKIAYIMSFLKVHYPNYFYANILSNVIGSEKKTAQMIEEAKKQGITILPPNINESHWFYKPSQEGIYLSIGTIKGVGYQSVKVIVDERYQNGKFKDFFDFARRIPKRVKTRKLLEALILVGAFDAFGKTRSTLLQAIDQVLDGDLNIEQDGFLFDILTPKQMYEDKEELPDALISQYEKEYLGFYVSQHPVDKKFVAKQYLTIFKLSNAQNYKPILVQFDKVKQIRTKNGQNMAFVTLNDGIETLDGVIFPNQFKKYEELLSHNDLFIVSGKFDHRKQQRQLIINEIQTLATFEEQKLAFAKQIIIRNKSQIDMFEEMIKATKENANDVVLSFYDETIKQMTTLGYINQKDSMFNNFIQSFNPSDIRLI
As to the kind of experiment: biochemical. The conditions noted are these: read-out: S. aureus DnaE IC50 (converted). It is filed as biochemical. Here is the method:
as §1, §2, §3

The subject of assay [3] is Escherichia coli MB5747 (LS 883, tolC). As to the kind of experiment: microbe, parasite or virus in culture. The conditions noted are these: Escherichia coli, read-out: E. coli LS883 tolC (MIC), MHII broth; * = some reduction of growth versus control at […]. In kind it is cell-based.
For assay [4], the system named is Pseudomonas aeruginosa MB5890 (CB1101, efflux-deleted). As to the kind of experiment: microbe, parasite or virus in culture. It is filed as cell-based. The conditions noted are these: Pseudomonas aeruginosa, read-out: P. aeruginosa MB5890 efflux-del (MIC), MHII broth; * = some reduction of growth versus control at […].
Assay [5] has as its system Streptococcus pneumoniae MB6357 (CL 2883). As to the kind of experiment: Nargenicin antibacterial assay (MIC), S. pneumoniae. In kind it is cell-based. The following applies: Streptococcus pneumoniae.
[6] abbreviates: read-out: S. pneumoniae MB2883 (MIC), Isosensitest broth, * = some reduction of growth versus control at […].
[7] abbreviates: read-out: S. pneumoniae MB2883 (MIC).

`CCN[C@H]1[C@H](C)[C@@H](O)[C@@H]2[C@H]3C=C[C@@H]4C[C@H](OC)C(=O)O[C@H]([C@@H](C)O)[C@H](C)/C=C(\C)[C@@]24O[C@H]31` [Example 147, (3R,4S,7S,8aS,10aR,11R,12S,13S,14R,14aS,14bS,E)-12-(ethylamino)-14-hydroxy-4-((R)-1-hydroxyethyl)-7-methoxy-1,3,13-trimethyl-3,4,8,8a,10a,11,12,13,14,14a-decahydro-11,14b-epoxynaphtho[2,1-e]oxecin-6(7H)-one]: the half-inhibitory concentration (IC50) was more than 222 µM in assay [1] and 0.667 µM in assay [2]. Besides, the MIC in assay [3], in assay [4] and in assay [5] (setting [6]) was more than 128 µg/mL each time.

As for `CO[C@H]1C[C@H]2C=C[C@H]3[C@H]4O[C@]2(/C(C)=C/[C@@H](C)[C@@H]([C@@H](C)O)OC1=O)[C@@H]3[C@H](O)[C@@H](C)[C@@H]4N1CCCC1` [Example 161, (3R,4S,7S,8aS,10aR,11R,12S,13S,14R,14aS,14bS,E)-14-hydroxy-4-((R)-1-hydroxyethyl)-7-methoxy-1,3,13-trimethyl-12-(pyrrolidin-1-yl)-3,4,8,8a,10a,11,12,13,14,14a-decahydro-11,14b-epoxynaphtho[2,1-e]oxecin-6(7H)-one], the concentration for half-maximal inhibition (IC50) in assay [1] is more than 105 µM; in assay [2], 46.3 µM. In addition, the MIC in assay [3], in assay [4] and in assay [5] (setting [7]) was more than 64 µg/mL each time.

Turning to `CO[C@H]1C[C@H]2C=C[C@H]3[C@H]4O[C@]2(/C(C)=C/[C@@H](C)[C@@H]([C@H](C)N2C(=O)c5ccccc5C2=O)OC1=O)[C@@H]3[C@H](O)[C@@H](C)[C@H]4OC(=O)c1ccc[nH]1` [Example 172], the IC50 was 63.6 µM in assay [1] and approximately 0.00776 µM in assay [2]. Besides, the figures for the MIC in assay [3], in assay [4] and in assay [5] (setting [6]) were 16 µg/mL (≈ 24.8 µM), more than 128 µg/mL and more than 128 µg/mL, respectively.

Turning to `CO[C@H]1C[C@H]2C=C[C@H]3[C@H]4O[C@]2(/C(C)=C/[C@@H](C)[C@@H]([C@@H](C)O)OC1=O)[C@@H]3[C@H](O)[C@@H](C)[C@H]4OC(=O)c1ccsc1` [Example 183], the results for the IC50 in assay [1] and in assay [2] were 9.76 µM and less than 0.0113 µM, respectively. Further, the MIC in assay [3] was 1 µg/mL (≈ 1.88 µM); in assay [4] it was 16 µg/mL (≈ 30 µM); in assay [5] (setting [7]) it was 64 µg/mL (≈ 120 µM).

Take `CO[C@H]1C[C@H]2C=C[C@H]3[C@H]4O[C@]2(/C(C)=C/[C@@H](C)[C@@H]([C@@H](C)O)OC1=O)[C@@H]3[C@H](O)[C@@H](C)[C@H]4OCc1ccsc1` [Example 184]: the figures for the IC50 in assay [1] and in assay [2] were 75.2 µM and 0.0771 µM, respectively. The values for the MIC in assay [3], in assay [4] and in assay [5] (setting [7]) were 8 µg/mL (≈ 15.4 µM), 64 µg/mL (≈ 123 µM) and 64 µg/mL (≈ 123 µM), respectively.

In the case of `CC[C@H]1OC(=O)[C@@H](OC)C[C@H]2C=C[C@H]3[C@H]4O[C@]2(/C(C)=C/[C@H]1C)[C@@H]3[C@H](O)C(C)[C@H]4C[N+](=O)[O-]` (stereo partly drawn) [Example 190, (3R,4R,7S,8aS,10aR,11R,12S,14R,14aS,14bS,E)-4-ethyl-14-hydroxy-7-methoxy-1,3,13-trimethyl-12-(nitromethyl)-3,4,8,8a,10a,11,12,13,14,14a-decahydro-11,14b-epoxynaphtho[2,1-e]oxecin-6(7H)-one], the 50% inhibitory concentration (IC50) in assay [1] is 66.7 µM; in assay [2] it was 6.67 µM. Also, the MIC was 64 µg/mL (≈ 142 µM) in assay [3], more than 64 µg/mL in assay [4] and more than 64 µg/mL in assay [5] (setting [7]).

With `CO[C@H]1C[C@H]2C=CC3C4[C@H](O)[C@@H](C)[C@@H](OC(=O)c5ccc[nH]5)[C@@H]3O[C@]42/C(C)=C/[C@@H](C)[C@@H]([C@@H](C)OC(=O)C(=O)OCCN(C)C)OC1=O.O=C(O)C(F)(F)F` [Example 205], the IC50 is 7.76 µM in assay [1] and less than 0.00776 µM in assay [2]. Further, the results for the MIC in assay [3], in assay [4] and in assay [5] (setting [7]) were 2 µg/mL, 64 µg/mL and more than 128 µg/mL, respectively.
